Assay results reported in PMC7412237, “Competition NMR for Detection of Hit/Lead Inhibitors of Protein–Protein Interactions” (Molecules, 2020).
pKi: −log10 of the molar value.

Assays:
[1] = target: T1, PD-1/PD-L1 complex (Homo sapiens, UniProt Q9NZQ7); conditions: ref [59]; cited from earlier work
T1 construct: made in house; host or cells: E. coli BL21 (DE3)

[2] = tested on: effector T cells; conditions: T cells attenuated by soluble and membrane-bound PD-L1; ref [59]; cited from earlier work
[3] = target: T2, (N66A)PD-1/PD-L1 complex (Homo sapiens, UniProt Q9NZQ7); assay: w-AIDA-NMR on (N66A)PD-1/PD-L1 complex; format: binding
T2 construct: made in house; host or cells: E. coli BL21 (DE3)
T2 sequence (Q9NZQ7 18-134, stated change not applied, one chain of several): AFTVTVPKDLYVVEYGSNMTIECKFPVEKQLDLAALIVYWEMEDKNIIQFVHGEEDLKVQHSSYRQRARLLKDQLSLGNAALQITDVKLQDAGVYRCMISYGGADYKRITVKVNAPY

[4] = target: T3, MdmX (Homo sapiens, UniProt O15151); assay: Fluorescence polarization competition assay (displacement of P2 peptide), MdmX; conditions: read-out: Ki towards MdmX; FP assay
T3 sequence (O15151 18-111): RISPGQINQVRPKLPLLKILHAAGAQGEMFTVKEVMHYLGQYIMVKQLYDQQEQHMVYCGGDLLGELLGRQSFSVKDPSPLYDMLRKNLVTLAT

T1 sequence (Q9NZQ7 18-134, one chain of several): as the sequence (Q9NZQ7 18-134, stated change not applied, one chain of several) above

Row | pKi [4] | SMILES | Dissociation of human PD-1/PD-L1 complex in vitro [1] | Activation of effector T cells [2] | Recovery of PD-1 signals in 1D 1H-NMR spectra ([3]; (N66A)PD-1/PD-L1 complex, molar ratio 1:1) | Dissociation of (N66A)PD-1/PD-L1 complex (recovery of 2D HMQC signals) ([3]; equimolar amount of compound)
1 | – | Cc1c(COc2cc(OCc3cccc(C#N)c3)c(CN3C[C@H](O)C[C@@H]3C(=O)O)cc2Cl)cccc1-c1ccc2c(c1)OCCO2 [BMS-1166] | efficiently dissociates the human PD-1/PD-L1 complex in vitro | activates the effector T cells | full recovery of the PD-1 signals | full recovery of 2D HMQC spectrum
2 | 4.57 | CC(C)(C)NC(=O)C(c1c(C(=O)O)[nH]c2cc(Cl)ccc12)N(C=O)Cc1cc(F)cc(F)c1F (centres unmarked) [compound 4] | – | – | – | –
